Measurements reported in patent publication US20230348394A1, “COMPOSITIONS AND METHODS FOR TREATING MUSCULAR DYSTROPHIES” (The Regents of the University of California, priority 2020, published 2023).

System: SSPN gene expression
Experiment: SSPN gene expression in tibialis anterior after intramuscular injection in mdx mice
Assay type: in vivo
Details: 4 hours
Procedure: For the preliminary safety assessment of OT-9, we performed IP injections in 6 month old C57/B16 males. The mice were injected with 100 μl of vehicle (5% DMSO (Sigma), 95% PBS), 100 μl of 30 mg/kg of OT-9 in vehicle, or 100 μl of 50 mg/kg of OT-9 in vehicle (n=1 mouse per treatment). […] For assessment of activity, 20-weeks old male mdx littermates were injected in both tibialis anterior muscles with vehicle (5% DMSO, 95% PBS) or 86 μg of OT-9. Two mice were injected in both TAs with vehicle and three mice were injected in both TAs with 200 of OT-9 (9.4 mM solution containing 86 μg of OT-9). After 4 hours, the muscles were harvested and processed for gene expression analysis. For assessment of activity of OT-9m after local administration, 19-22-weeks old mdx males were injected in both tibialis anterior muscles with vehicle (5% DMSO, 95% PBS) or 3 mg/kg and 10 mg/kg of OT-9m. After 4 hours, the muscles were harvested and processed for gene expression analysis. For assessment of activity of OT-9m after systemic administration, 13-weeks old mdx males were injected subcutaneously with vehicle (4% PEG-200 in hydroxypropyl-b-cyclodextrin) or 20 mg/kg/day of OT-9m. After 13 days of treatment, the muscles were harvested and processed for gene expression analysis.
After the preliminary safety evaluation, we tested the ability of OT-9 to increase SSPN gene expression in vivo. […] Five 20-weeks old male mdx littermates were subjected to intramuscular injections in both tibialis anterior (TA) muscles. Two mice were injected in both TAs with vehicle and […] were injected with 3 mg/kg of OT-9 (molar equivalent of 9.4 mM used in the safety assessment). After 4 hours of treatment, the TAs were harvested and processed for gene expression analysis. […] After determination that OT-9 is capable of increasing SSPN gene expression in vivo, we evaluated one of its derivatives, OT-9m, for its ability to increase SSPN expression in mdx mice. OT-9m was chosen based on its improved activity in vitro compared to OT-9 (compare, Table 1, entries 1 & 14). To assess activity OT-9m in vivo after local administration, eleven 19-22 weeks old male mdx mice were subjected to intramuscular injections in both tibialis anterior (TA) muscles. Four mice were injected in both TAs with vehicle, three mice were injected with 3 mg/kg of OT-9m and four mice were injected with 10 mg/kg of OT-9m. After 4 hours of treatment, the TAs were harvested and processed for gene expression analysis.

For CCN(CC)c1ccc2cc(C(=O)Nc3ccc(C(=O)N4CCCCCC4)cc3)c(=O)oc2c1 [OT-9], the “increase in SSPN gene expression relative to the vehicle control-treated group” value (3 mg/kg intramuscular, tibialis anterior) was 1.7 fold and the “adverse effects after local injection” value (OT-9 3 mg/kg intramuscular, both TA) was “No adverse effects”.
